ChEMBL document CHEMBL1154439, “Activity of a hydroxybibenzyl bryophyte constituent against Leishmania spp. and Trypanosoma cruzi: in silico, in vitro and in vivo activity studies” (Eur J Med Chem, 2008)
pIC50: −log10 of the molar value. Blank lines part the entries; values can stand above or below the compound they belong to. Activity calls are given as the source filed them. No cut-off for these calls is given here.

Tests used:
[1] = system: Trypanosoma cruzi; assay: Antitrypanosomal activity against Trypanosoma cruzi CL-B5 amastigotes infected in mouse NCTC-929 fibroblast after 7 days by colorimetric method; format: functional, organism-based; conditions: NCTC-929, 168 h
[2] = system: Trypanosoma cruzi; assay: Trypanocidal activity against Trypanosoma cruzi CL-B5 clone epimastigotes expressing lacZ gene after 72 hrs at 28 degC; format: functional, organism-based
[3] = system: Leishmania amazonensis; assay: Antileishmanial activity against Leishmania amazonensis PH8 amastigotes infected in mouse peritoneal macrophages after 48 hrs; format: functional, organism-based; conditions: PH8, 48 h
[4] = system: Leishmania donovani; assay: Leishmanicidal activity against Leishmania donovani MHOM/BR/74/PP75 promastigotes after 72 hrs; format: functional, organism-based
[5] = system: Leishmania braziliensis; assay: Leishmanicidal activity against Leishmania braziliensis MHOM/BR/75/M2903 promastigotes after 72 hrs; format: functional, organism-based; conditions: MHOM/BR/75/M2903, 72 h
[6] = system: Leishmania amazonensis; assay: Leishmanicidal activity against Leishmania amazonensis IFLA/BR/67/PH8 promastigotes after 72 hrs; format: functional, organism-based; conditions: IFLA/BR/67/PH8, 72 h
[7] = system: Leishmania braziliensis; assay: Antileishmanial activity against Leishmania braziliensis MHOM/BR/75/M2903 promastigotes assessed as lysis of promastigotes at 100 ug/ml after 72 hrs; format: functional
[8] = system: Leishmania donovani; assay: Antileishmanial activity against Leishmania donovani MHOM/BR/74/PP75 promastigotes assessed as lysis of promastigotes at 100 ug/ml after 72 hrs; format: functional
[9] = system: Leishmania amazonensis; assay: Antileishmanial activity against Leishmania amazonensis IFLA/BR/67/PH8 promastigotes assessed as lysis of promastigotes at 100 ug/ml after 72 hrs; format: functional
[10] = system: Leishmania amazonensis; assay: Leishmanicidal activity against Leishmania amazonensis amastigotes infected in BALB/c mouse assessed as suppression of parasite load in lesions at 10 mg/kg/day, po administered 4 weeks after infection for 15 days measured after 1 week relative to control; format: functional
[11] = Cytotoxicity against BALB/c mouse peritoneal macrophages at 21.7 uM after 48 hrs by trypan blue exclusion method; format: cell-based; conditions: macrophage
[12] = Cytotoxicity against mouse NCTC-929 fibroblast at 21.7 uM after 24 hrs by resazurin test; format: cell-based; conditions: nctc-929, 24 h
[13] = Cytotoxicity against BALB/c mouse peritoneal macrophages at 4.3 uM after 48 hrs by trypan blue exclusion method; format: cell-based; conditions: macrophage
[14] = Cytotoxicity against BALB/c mouse peritoneal macrophages at 2.1 uM after 48 hrs by trypan blue exclusion method; format: cell-based; conditions: macrophage
[15] = system: J774; assay: Cytotoxicity against mouse J774 macrophages at 2.1 uM after 24 hrs by resazurin test; format: cell-based; conditions: j774, 24 h
[16] = Cytotoxicity against mouse NCTC-929 fibroblast at 8.6 uM after 24 hrs by resazurin test; format: cell-based; conditions: nctc-929, 24 h
[17] = system: Leishmania amazonensis; assay: Leishmanicidal activity against Leishmania amazonensis amastigotes infected in BALB/c mouse assessed as suppression of lesion weight at 25 mg/kg/day, po administered 4 weeks after infection for 15 days measured after 1 week relative to control; format: functional
[18] = system: J774; assay: Cytotoxicity against mouse J774 macrophages at 8.6 uM after 24 hrs by resazurin test; format: cell-based; conditions: j774, 24 h
[19] = system: Leishmania amazonensis; assay: Leishmanicidal activity against Leishmania amazonensis IFLA/BR/67/PH8 promastigotes at >13.03 uM after 72 hrs; format: functional, organism-based
[20] = system: J774; assay: Cytotoxicity against mouse J774 macrophages at 4.3 uM after 24 hrs by resazurin test; format: cell-based; conditions: j774, 24 h
[21] = system: Leishmania amazonensis; assay: Leishmanicidal activity against Leishmania amazonensis amastigotes infected in BALB/c mouse assessed as suppression of parasite load in lesions at 25 mg/kg/day, sc administered 4 weeks after infection for 15 days measured after 1 week relative to control; format: functional; conditions: route subcutaneous
[22] = system: Leishmania amazonensis; assay: Leishmanicidal activity against Leishmania amazonensis amastigotes infected in BALB/c mouse assessed as suppression of lesion weight at 25 mg/kg/day, sc administered 4 weeks after infection for 15 days measured after 1 week relative to control; format: functional; conditions: route subcutaneous
[23] = system: Leishmania braziliensis; assay: Leishmanicidal activity against Leishmania braziliensis MHOM/BR/75/M2903 promastigotes at >13.03 uM after 72 hrs; format: functional, organism-based
[24] = system: Leishmania amazonensis; assay: Leishmanicidal activity against Leishmania amazonensis amastigotes infected in BALB/c mouse assessed as suppression of lesion weight at 10 mg/kg/day, po administered 4 weeks after infection for 15 days measured after 1 week relative to control; format: functional
[25] = system: Leishmania donovani; assay: Leishmanicidal activity against Leishmania donovani MHOM/BR/74/PP75 promastigotes at >13.03 uM after 72 hrs; format: functional, organism-based
[26] = system: Leishmania amazonensis; assay: Leishmanicidal activity against Leishmania amazonensis amastigotes infected in BALB/c mouse assessed as suppression of parasite load in lesions at 25 mg/kg/day, po administered 4 weeks after infection for 15 days measured after 1 week relative to control; format: functional
[27] = system: Leishmania amazonensis; assay: Leishmanicidal activity against Leishmania amazonensis amastigotes infected in BALB/c mouse assessed as suppression of parasite load in lesions at 10 mg/kg/day, sc administered 4 weeks after infection for 15 days measured after 1 week relative to control; format: functional; conditions: route subcutaneous
[28] = Cytotoxicity against BALB/c mouse peritoneal macrophages at 8.6 uM after 48 hrs by trypan blue exclusion method; format: cell-based; conditions: macrophage
[29] = system: J774; assay: Cytotoxicity against mouse J774 macrophages at 21.7 uM after 24 hrs by resazurin test; format: cell-based; conditions: j774, 24 h
[30] = system: Leishmania amazonensis; assay: Antileishmanial activity against Leishmania amazonensis PH8 amastigotes infected in mouse peritoneal macrophages at >4.34 uM; format: functional, organism-based
[31] = Cytotoxicity against mouse NCTC-929 fibroblast at 4.3 uM after 24 hrs by resazurin test; format: cell-based; conditions: nctc-929, 24 h
[32] = system: Leishmania amazonensis; assay: Leishmanicidal activity against Leishmania amazonensis amastigotes infected in BALB/c mouse assessed as suppression of lesion weight at 10 mg/kg/day, sc administered 4 weeks after infection for 15 days measured after 1 week relative to control; format: functional; conditions: route subcutaneous
[33] = Cytotoxicity against mouse NCTC-929 fibroblast at 2.1 uM after 24 hrs by resazurin test; conditions: nctc-929, 24 h
[34] = system: Leishmania amazonensis; assay: Leishmanicidal activity against Leishmania amazonensis amastigotes infected in BALB/c mouse assessed as suppression of lesion weight at 100 mg/kg/day, sc administered 4 weeks after infection for 15 days measured after 1 week relative to control; format: functional, organism-based
[35] = system: Leishmania amazonensis; assay: Leishmanicidal activity against Leishmania amazonensis amastigotes infected in BALB/c mouse assessed as suppression of parasite load in lesions at 100 mg/kg/day, sc administered 4 weeks after infection for 15 days measured after 1 week relative to control; format: functional, organism-based

Compound: O=C(Cn1ccnc1[N+](=O)[O-])NCc1ccccc1 [BENZNIDAZOLE]
pIC50 [1]: 3.72
pIC50 [2]: 4.26

pIC50 [3]: 6.05
Compound: N=C(N)c1ccc(OCCCCCOc2ccc(C(=N)N)cc2)cc1 [PENTAMIDINE]
pIC50 [4]: 5.01
pIC50 [5]: 5.01
pIC50 [6]: 5.01

Compound: Oc1ccc(/C=C/c2cc(O)cc(O)c2)cc1 [RESVERATROL]
Activity [7]: 80%
Activity [8]: <70%
Activity [9]: <70%

Compound: Oc1ccc(CCc2cccc(O)c2)cc1 [LUNULARIN]
Activity [7]: <70%
Activity [9]: <70%

pIC50 [3]: 5.82
Compound: Oc1ccc(CCc2cc(O)ccc2O)cc1
Activity [7]: 100%
Activity [10]: 68.6%
Activity [11]: 1.4%
Activity [12]: 7.91%
Activity [13]: 0%
Activity [14]: 0%
Activity [15]: 0.76%
Activity [8]: 100%
Activity [16]: 2.93%
Activity [17]: 80.9%
Activity [18]: 4.89%
pIC50 [4]: 6.30
Activity [19]: Active
Activity [9]: 100%
Activity [20]: 2.11%
Activity [21]: 97%
pIC50 [5]: 5.96
Activity [22]: 98.3%
Activity [23]: Active
pIC50 [1]: 4.76
Activity [24]: 90%
pIC50 [2]: 5.24
Activity [25]: Active
Activity [26]: 93.1%
Activity [27]: 93%
Activity [28]: 0%
Activity [29]: 18.88%
Activity [30]: Active
Activity [31]: 0.66%
pIC50 [6]: 5.96
Activity [32]: 95.9%
Activity [33]: 0%

Compound: COc1ccc(CCc2cc(OC)ccc2OC)cc1
Activity [7]: <70%
Activity [9]: <70%

Compound: MEGLUMINE ANTIMONATE
Activity [34]: 72.1%
Activity [35]: 98.2%
